Results from ChEMBL document CHEMBL5257051, “Integrasone Derivatives Isolated from Lepteutypa sp. KT4162 and Their Anti-HIV-1 Integrase Activity” (J Nat Prod, 2023).

How the values were obtained:
[1] = Inhibition of HIV-1 Integrase transfected in human HEK293T cells measured after 48 hrs by bright-glo luciferase assay; type: cell-based; conditions: Human immunodeficiency virus 1, HEK-293T
[2] = Cytotoxicity against human HEK293T cells assessed as cell growth inhibition measured for 30 mins by WST assay; type: toxicity, cell-based, HEK-293T
[3] = Inhibition of HIV-1 Integrase transfected in human HEK293T cells measured after 48 hrs by luminometer analysis; type: cell-based, Human immunodeficiency virus 1
[4] = Cytotoxicity against human HEK293T cells assessed as cell growth inhibition by MTT assay; type: toxicity, cell-based, HEK-293T

CCCCCCCCC(=O)Cc1occ2c1[C@@H](O)[C@@H]1O[C@@H]1[C@@H]2O
IC50 [1]: 40 µM
CC50 at 0.5 h [2]: > 250 µM

CCCCCCCCC(=O)C[C@H]1OCC2=C1[C@@H](O)[C@@H]1O[C@@H]1[C@@H]2O
IC50 [1]: 95 µM
CC50 at 0.5 h [2]: > 250 µM

CCCCCCCCC(=O)C[C@H]1OC(=O)C2=C1[C@@H](O)[C@@H]1O[C@@H]1[C@@H]2O
IC50 [1]: 56 µM
CC50 at 0.5 h [2]: > 250 µM

CCCCCCCCC(=O)C[C@@H]1OC(=O)C2=C1[C@@H](O)[C@@H]1O[C@@H]1[C@@H]2O
IC50 [1]: 2.5 µM
CC50 at 0.5 h [2]: > 250 µM

O=C(CCCCCCCCO)C[C@H]1OCC2=C1[C@@H](O)[C@@H]1O[C@@H]1[C@@H]2O
IC50 [1]: 112 µM
CC50 at 0.5 h [2]: > 250 µM

COc1cc2c(cc1Cc1cccc(Cl)c1F)c(=O)c(C(=O)O)cn2[C@H](CO)C(C)C [ELVITEGRAVIR]
IC50 [3]: 3.8 µM
CC50 [4]: > 250 µM
